For data set [1], the system named is African Green monkeys made glaucomatous. The experiment in a line: Intraocular pressure in glaucomatous African Green monkeys after oral dosing. The class given is in vivo, African Green monkey. The protocol: African Green monkeys are made glaucomatous and divided into three groups. Ocular hypertension is measured before the administration of any drug, then one of each group of animals is given an oral dose of either a) glucose (negative control); b) a formulation of FORMULA 2 at a dosage of either 2 mg/kg or 7 mg/kg, or c) Diamox® (acetazolamide; a carbonic anhydrase inhibitor used for treatment of glaucoma) (positive control) at a concentration of 20 mg/kg. Intraocular pressure is measured at 0, 6, 12, and 24 hours following administration of each formulation.

Data set [2] relates to rat spinal nerve ligation allodynia model. The experiment in a line: Rat spinal nerve ligation allodynia model (chronic pain, von Frey tactile allodynia). It is filed as in vivo. The conditions noted are these: 30 minutes after administration. The procedure:
(§1) The physiological activity of these compounds was tested using four models: a rat locomotor model to assess sedation, an assay of cardiovascular activity in monkeys, a rat thermal paw withdrawal assay (Dirig et al., J. Neurosci. Methods 76:183-191 (1997) to test the alleviation of acute pain, and the rat spinal nerve ligation allodynia model (Kim and Chung, Pain 50:355-363 (1992) to assess the alleviation of neuropathic pain and central sensitization typical of chronic pain. As is known to those of skill in the art, these tests are established pharmacological methods for determining sedation, cardiovascular effects, acute pain and chronic pain, respectively, of pharmaceutical agents.
A model for chronic pain (in particular peripheral neuropathy such as causalgia) involves the surgical ligation of the L5 (and optionally the L6) spinal nerves on one side in experimental animals. Rats recovering from the surgery gain weight and display a level of general activity similar to that of normal rats. However, these rats develop abnormalities of the foot, wherein the hindpaw is moderately everted and the toes are held together. More importantly, the hindpaw on the side affected by the surgery appears to become sensitive to pain from low-threshold mechanical stimuli, such as that producing a faint sensation of touch in a human, within about 1 week following surgery. This sensitivity to normally non-painful touch is called “tactile allodynia” and lasts for at least two months. The response includes lifting the affected hindpaw to escape from the stimulus, licking the paw and holding it in the air for many seconds. None of these responses is normally seen in the control group.
Rats are anesthetized before surgery. The surgical site is shaved and prepared either with betadine or Novacaine. Incision is made from the thoracic vertebra X111 down toward the sacrum. Muscle tissue is separated from the spinal vertebra (left side) at the L4-S2 levels. The L6 vertebra is located and the transverse process is carefully removed with a small rongeur to expose the L4-L6 spinal nerves. The L5 and L6 spinal nerves are isolated and tightly ligated with 6-0 silk thread. The same procedure is done on the right side as a control, except no ligation of the spinal nerves is performed.
A complete hemostasis is confirmed, then the wounds are sutured. A small amount of antibiotic ointment is applied to the incised area, and the rat is transferred to the recovery plastic cage under a regulated heat-temperature lamp. […]
Tactile allodynia is measured prior to and 30 minutes after drug administration using von Frey hairs that are a series of fine hairs with incremental differences in stiffness. […] The applied force has been calculated to range from 0.41 to 15.1 grams. […]

Another data set deals with male Sprague-Dawley rats. The experiment in a line: Rat locomotor model to assess sedation (exploratory activity). It is filed as in vivo. The conditions noted are these: 30 minutes after injection, versus vehicle controls. The procedure: as §1
To test sedation, six male Sprague-Dawley rats were given up to 3 mg/kg of each compound in a saline or DMSO vehicle by intraperitoneal injection (i.p.). Sedation was graded 30 minutes following administration of the drug by monitoring locomotor skills as follows.
The Sprague-Dawley rats are weighed and 1 ml/kg body weight of an appropriate concentration (ie. 3 mg/ml for a final dose of 3 mg/kg) drug solution is injected intraperitoneally. FORMULA 3 is formulated in approximately 10% DMSO and FORMULA 2 and FORMULA 4 are formulated in 50% DMSO. The results are compared to 29 historical controls that were injected with 1 ml/kg saline or 50% DMSO. Rat activity is then determined 30 minutes after injection of the drug solution. Rats are placed in a dark covered chamber and a digicom analyzer (Omnitech Electronic) quantitates their exploratory behavior for a five-minute period. The machine records each time the rat interrupts an array of 32 photoelectric beams in the X and Y orientation.
FORMULA 2 and FORMULA 3 were tested at 1 mg/kg and FORMULA 4 was tested at 3 mg/kg. Thus, the compounds are not sedating.

Data set [3] concerns allodynia resulting from shingles. The experiment in a line: Treatment of allodynia resulting from shingles in a patient. It is filed as in vivo, human. The conditions noted are these: oral capsule as needed, after two days' treatment, one patient. An excerpt:
A person in generally good physical condition suffers from serious pain to their upper body due caused by contact of their skin with their clothing. The patient is unable to wear clothing on their upper body without severe pain. […] The patient is given a therapeutically effective oral dose of FORMULA 3 in capsule form as needed for the treatment of pain. […] Same facts as in Example 5, except the patient is given a therapeutically effective oral dose of FORMULA 2 in capsule form as needed for the treatment of pain.

A further data set deals with visceral pain. The experiment in a line: Treatment of visceral pain in a colon cancer patient. It is filed as in vivo, human. The conditions noted are these: intravenous infusion twice daily, after two days, one patient. From the text: A patient suffering from colon cancer and undergoing chemotherapy experiences severe visceral pain associated with this primary condition. Treatment of this pain with opiates has been ineffective to provide substantial relief. The patient is given a therapeutic amount of FORMULA 3 by intravenous infusion in a pharmaceutically acceptable vehicle. The treatment is given twice daily. […] Under the same facts as Example 7, except the patient is given FORMULA 2 instead of FORMULA 3.

Molecules are shown by their SMILES.

For `CC(=O)Nc1nnc(S(N)(=O)=O)s1` [Diamox ®, acetazolamide, reference compound], the “Change in Intraocular Pressure (%)” value in data set [1] (oral 20 mg/kg (positive control), 0 hours) is listed as 0%; in data set [1] (oral 20 mg/kg (positive control), 6 hours), −38%; in data set [1] (oral 20 mg/kg (positive control), 12 hours), −41%; in data set [1] (oral 20 mg/kg (positive control), 24 hours), −18%.

In the case of `OCCNC(=S)NCc1ccccc1F` [FORMULA 4, reference compound], in data set [2] (i.p. doses up to 3 mg/kg), the “Analgesic activity (tactile allodynia)” value is on record as “no analgesic activity”. Also, the “Sedation: reduction in the exploratory activity of the rats” value (shortened to “Sedation: reduction”) in the data set on male Sprague-Dawley rats (3 mg/kg i.p.) is recorded as “not sedating”.

For the compound `OCCNC(=S)NCc1ccc(F)cc1` [AGN196204], in data set [2], the “Reduction of the response to tactile stimuli that indicate tactile allodynia (analgesic in chronic pain model)” value (“Reduction of the response” for short) was “able to reduce the response to the tactile stimuli”.

Take `OCCNC(=S)NCc1ccc(F)cc1` [FORMULA 3]: the “Patient-reported allodynia resulting from shingles” value in data set [3] is “markedly reduced”. Besides, the “Reduction of the response” value in data set [2] was “analgesic in a model of chronic pain”. Besides, in the data set with male Sprague-Dawley rats (1 mg/kg i.p.), the “Sedation: reduction” value is “not sedating”. For the same compound, the Patient-reported visceral pain result in the data set on visceral pain is “significant alleviation”.

With `OCCNC(=S)NCc1cccc(Cl)c1F` [FORMULA 2, 1-(3-chloro-2-fluorobenzyl)-3-(2-hydroxyethyl)-thiourea], the “Change in Intraocular Pressure (%)” value in data set [1] (oral 2 mg/kg, 0 hours) is reported as 0%; in data set [1] (oral 2 mg/kg, 6 hours) it was −18%; in data set [1] (oral 2 mg/kg, 12 hours), −32%; in data set [1] (oral 2 mg/kg, 24 hours) it was −3%; in data set [1] (oral 7 mg/kg, 0 hours), 0%; in data set [1] (oral 7 mg/kg, 6 hours) it was −22%. Moreover, the “Change in Intraocular Pressure (%)” value in data set [1] (oral 7 mg/kg, 12 hours) was −26%; in data set [1] (oral 7 mg/kg, 24 hours), −15%. In data set [3], the “Patient-reported allodynia resulting from shingles” value is “markedly reduced”. Besides, the “Reduction of the response” value in data set [2] is recorded as “able to reduce the response to the tactile stimuli”. Further, in the data set on male Sprague-Dawley rats (1 mg/kg i.p.), the “Sedation: reduction” value was “not sedating”. Besides, in the data set on visceral pain, the Patient-reported visceral pain entry is reported as “significant alleviation”.

The values above are taken from patent publication US7754768B2, “Methods and compositions for modulating alpha adrenergic receptor activity” (Allergan, Inc., priority 2000, dated 2010).
